One series has as its target human SHMT2 (Homo sapiens, UniProt P34897).
In another series the target is human SHMT1 (Homo sapiens, UniProt P34896). Particulars: read-out: SHMT1 IC50; Table 3.
For series [1], the system named is human pancreatic cell line 8988T. The series can be described thus: Growth of pancreatic cancer cell line 8988T. In kind it is cell-based. Particulars: 8988T cells.
For series [2], the system named is Su-DHL4 cells. In words: Apoptosis by Annexin V surface staining, flow cytometry. The format is cell-based. The text has this:
In contrast, cell growth is further decreased in Su-DHL4 cells by addition of formate. This can be further exacerbated by removal of glycine from the media. […] Using flow cytometry, apoptosis of Su-DHL4 cells were studied with AnnexinV surface staining (FIGS. 12D and 12E).
For orientation: In flow cytometry, cells or beads pass a laser one at a time.

Another series has as its system Jurkat cells. The series can be described thus: Cellular growth assay, Jurkat. In kind it is cell-based. The procedure:
(§1) Jurkat, REH, Farage, Daudi, Su-DHL2, Su-DHL-4, Su-DHL-6 cells were purchased from ATCC. Cells were subcultured in RPMI supplemented with 10% FBS. For growth assays, cells were seeded at 2×10^5/mL in 5 mL growth media in 12.5 cm flasks. Media was supplemented with sodium formate (1 mM), additional glycine (100 mg/L) and an SHMTi (5 uM). Cells were sampled daily, and counted using trypan blue staining and light microscopy.

The test system of series [3] is Su-DHL4 cells. In words: Cellular growth, SU-DHL4. The format is cell-based. Particulars: SU-DHL4, FIG. 12C legend. The procedure:
as §1

The nature of a further series: LogP value. The format is physicochemical. Particulars: Table 2; head prints (μM).
The test system of series [4] is human colon carcinoma HCT-116 WT cells. The series can be described thus: Cell growth assay (resazurin), HCT-116 wild-type. Particulars: for IC50: Homo sapiens, HCT-116, Table 2. In kind it is cell-based. As to the method:
The described cell lines for Examples 8 and 9 are cultured in 96-well plates in Dulbecco's modified eagle media (DMEM) without pyruvate (CELLGRO) with 10% dialysed fetal bovine serum (Invitrogen) in 5% CO2 at 37° C. Approximately 2,500 cells are plated in each well in 90 uL of media. After 24 hours cells are treated with various concentrations of inhibitor (time=0 hours), with or without formate. Growth was assessed at multiple time points (time=0, 24, 48, 72 hours) through measurement of fluorescence at 595 nm (excitation at 535 nm) on a BioTek micro titer plate reader after incubation with resazurin (0.01 mg/mL for 1.5 hours). IC50 curves are generated from percent inhibition of growth at 72 hours. […]
A general note: Alamar Blue is a resazurin reagent that responds to reducing activity.

A further series concerns HCT cells. The series can be described thus: Formate rescue assay in cell growth. The format is cell-based, human. Particulars: Table 2. As to the method:
Application of formate is shown to rescue the anti-growth effect in certain human cells treated with SHMT inhibitors in a cell growth assay.
The described cell lines for Examples 8 and 9 are cultured in 96-well plates in Dulbecco's modified eagle media (DMEM) without pyruvate (CELLGRO) with 10% dialysed fetal bovine serum (Invitrogen) in 5% CO2 at 37° C. Approximately 2,500 cells are plated in each well in 90 uL of media. After 24 hours cells are treated with various concentrations of inhibitor (time=0 hours), with or without formate. Growth was assessed at multiple time points (time=0, 24, 48, 72 hours) through measurement of fluorescence at 595 nm (excitation at 535 nm) on a BioTek micro titer plate reader after incubation with resazurin (0.01 mg/mL for 1.5 hours). IC50 curves are generated from percent inhibition of growth at 72 hours.

Series [5] in a line: Liver microsome assay (metabolic stability). The format is in vitro ADME. Particulars: male, CD-1, mouse, pooled liver microsomes. As to the method: The following master solution was prepared before compound addition:
Two separate experiments were performed as follows: a) With Cofactors (NADPH and UDPGA): 40 μL of 10 mM NADPH and 40 μL of 20 mM UDPGA were added to the incubations. The final concentrations of microsomes, NADPH and UDPGA were 0.5 mg/mL, 1 mM and 2 mM, respectively. b) Without Cofactors (NADPH and UDPGA): 10 μL of 20 mg/mL liver microsomes and 80 μL of ultra-pure water were added to the incubations. The final concentration of microsomes was 0.5 mg/mL. The mixture was pre-warmed at 37° C. for 5 minutes.
The reaction was started with the addition of 4 μL of 200 μM control compound or test compound solution. Verapamil was used as positive control in this study. The final concentration of test compound or control compound was 2 μM. The incubation solution was incubated in water bath at 37° C. Aliquots of 50 μL were taken from the reaction solution at 0.5, 5, 15, 30, 45 and 60 minutes. The reaction was stopped by the addition of 5 volumes of cold acetonitrile with IS (100 nM alprazolam, 200 nM caffeine and 100 nM tolbutamide). Samples were centrifuged at 3,220 g for 40 minutes. Aliquot of 100 μL of the supernatant was mixed with 100 μL of ultra-pure H2O and then used for LC-MS/MS analysis. The in vitro half-life (in vitro t1/2) was determined from the slope value of the LC-MS signal of the test compound.

A further series concerns HCT-116 ΔSHMT2 cells. The series can be described thus: Cell growth assay, HCT-116 SHMT2 deletion (knock-out) cells. The format is cell-based, human. Particulars: FIG. 3B; increased potency versus native cells. The procedure: Inhibitors of SHMT were evaluated in various cancer cell lines, in the presence and absence of mutations in mitochondrial folate pathway enzymes.
To analyze the effects of inhibition on each isoform independently, SHMT1 and SHMT2 HCT-116 deletion clones were used.

The test system of a further series is Su-DHL-2 cells. In words: Cellular growth assay, Su-DHL-2. The format is cell-based. As to the method: as §1
Where [6] appears, read: replicate 1, read-out: CLint (replicate 1).
The mark [7] stands for this setting: replicate 2, read-out: CLint (replicate 2).

Structures are written as SMILES. Where two headings read alike, the source gives them in different places. A value given as a limit tells only on which side of the number the result lay.

human SHMT2, sequence (P34897 30-504 limits assumed): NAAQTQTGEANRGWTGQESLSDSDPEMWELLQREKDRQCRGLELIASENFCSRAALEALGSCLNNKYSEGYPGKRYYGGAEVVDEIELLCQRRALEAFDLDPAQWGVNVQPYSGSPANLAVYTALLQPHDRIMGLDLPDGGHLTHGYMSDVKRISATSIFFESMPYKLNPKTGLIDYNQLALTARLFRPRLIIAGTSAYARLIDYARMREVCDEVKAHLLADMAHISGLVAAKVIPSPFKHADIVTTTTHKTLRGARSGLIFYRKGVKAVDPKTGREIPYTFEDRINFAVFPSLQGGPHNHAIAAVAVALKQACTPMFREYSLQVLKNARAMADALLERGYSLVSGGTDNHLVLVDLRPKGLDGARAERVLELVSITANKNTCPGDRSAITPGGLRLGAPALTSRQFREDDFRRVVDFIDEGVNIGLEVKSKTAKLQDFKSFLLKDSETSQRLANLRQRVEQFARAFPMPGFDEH
human SHMT1, sequence (P34896 2-483 limits assumed): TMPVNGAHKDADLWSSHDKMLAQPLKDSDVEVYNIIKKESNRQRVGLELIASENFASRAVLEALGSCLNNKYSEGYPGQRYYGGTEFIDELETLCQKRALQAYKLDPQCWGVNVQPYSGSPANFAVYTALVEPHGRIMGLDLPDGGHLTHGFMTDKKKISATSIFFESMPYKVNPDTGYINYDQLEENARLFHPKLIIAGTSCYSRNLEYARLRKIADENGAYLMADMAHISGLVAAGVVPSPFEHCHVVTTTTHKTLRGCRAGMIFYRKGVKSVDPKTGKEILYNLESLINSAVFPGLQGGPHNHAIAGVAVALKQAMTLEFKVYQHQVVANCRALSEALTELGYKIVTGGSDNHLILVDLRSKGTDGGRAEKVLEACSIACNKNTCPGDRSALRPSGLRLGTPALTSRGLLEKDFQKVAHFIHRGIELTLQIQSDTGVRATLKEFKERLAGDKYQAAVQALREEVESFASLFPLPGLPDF
Experimental for human SHMT1: (§2) For the SHMT1 and SHMT2 in vitro enzymatic assays, the rate of 5,10-methylene tetrahydrofolate formation catalyzed by SHMT1/2 was indirectly evaluated by coupling with excess MTHFD2, which converts NAD+ to NADH allowing for reaction monitoring by absorption at 340 nm. […] Inhibition of initial reaction velocity was determined by adding various inhibitors at different concentrations and monitored as described. IC50 may be calculated based on this assay.
Experimental for human SHMT2: as §2

For `COc1cccc(C2(C3CCC3)C(C#N)=C(N)Oc3[nH]nc(C)c32)c1` (stereo not shown) [HK-2], the IC50 (in general, the midpoint of a concentration-inhibition curve) at human SHMT2 (read-out: SHMT2 IC50, Table 3) is > 5 µM; on human SHMT1, > 5 µM.

In the case of `Cc1n[nH]c2c1C(c1cc(CO)cc(-c3ccccc3)c1)(C(C)C)C(C#N)=C(N)O2` (stereo not shown) [HK-X2], the “concentrations that impair cell growth” value in series [1] is < 100 nM. The “apoptotic fraction of cells” value in the series with Su-DHL4 cells [2] (inhibitor alone, untreated 2%) is on record as 8%; in the series with Su-DHL4 cells [2] (inhibitor in the presence of formate) it was 15%. In the series on Jurkat cells (FIG. 12C legend), the 80% effect level (IC80) was put at 2.5 µM. Moreover, the IC70 (commonly the point of the concentration-response curve where the effect stands at 70%) in the series on Su-DHL4 cells [3] worked out at 5 µM.

As for `Cc1n[nH]c2c1C(c1cc(C#CCCO)cc(C(F)(F)F)c1)(C(C)C)C(C#N)=C(N)O2` (stereo not shown) [Compound 2], the logP (as a rule, the decadic logarithm of the partition coefficient of the neutral form, usually between octanol and water) in the series “LogP value” is 3.46. In series [4], this compound had an IC50 of 6.9 µM. Also, the “% formate rescue” value in the series with HCT cells stood at 100.58%.

In series [4], `Cc1n[nH]c2c1C(c1cc(C#CCCC(N)=O)cc(C(F)(F)F)c1)(C(C)C)C(C#N)=C(N)O2` (stereo not shown) [Compound 11] yielded an IC50 of 5.98 µM. In addition, the “% formate rescue” value in the series on HCT cells came to 96.98%. Moreover, the microsomal CLint at 2 μM is 764 µL/min/mg in [5] (setting [6]) and 541 µL/min/mg in [5] (setting [7]).

Consider `Cc1n[nH]c2c1C(c1cc(C#CCCCO)cc(C(F)(F)F)c1)(C(C)C)C(C#N)=C(N)O2` (stereo not shown) [Compound 1], for which the logP in “LogP value” is 3.91. Moreover, the values for the microsomal CLint at 2 μM in [5] (setting [6]) and in [5] (setting [7]) were 597 µL/min/mg and 776 µL/min/mg, respectively.

`Cc1n[nH]c2c1C(c1cc(C#CCCCO)cc(C(F)(F)F)c1)(C(C)C)C(C#N)=C(N)O2` (stereo not drawn) [1 (enantiomeric ally active peak)] registered an IC50 in [4] of 1.36 µM. Moreover, the “% formate rescue” value with HCT cells is on record as 94.96%.

`Cc1n[nH]c2c1C(c1cc(C#CCCC(=O)N[C@H](CCC(=O)O)C(=O)O)cc(C(F)(F)F)c1)(C(C)C)C(C#N)=C(N)O2` (stereo partly shown) [Compound 70] had a logP in the series “LogP value” of 2.49. This compound also yielded an IC50 in [4] of 100 µM. Moreover, the “% formate rescue” value in the series on HCT cells worked out at 94.89%.

As for `Cc1n[nH]c2c1C(c1cc(C#N)cc(C#CCCCO)c1)(C(C)C)C(C#N)=C(N)O2` (stereo not shown) [Compound 71], the IC50 in series [4] came to 4.96 µM. For the same compound, the “% formate rescue” value in the series on HCT cells is given as 97.81%. Also, the microsomal CLint at 2 μM in [5] (setting [6]) was found to be 285 µL/min/mg; in series [5] (setting [7]) it was 203 µL/min/mg.

In series [4], `Cc1n[nH]c2c1C(c1cc(C#CCCCN)cc(C(F)(F)F)c1)(C(C)C)C(C#N)=C(N)O2` (stereo not shown) [Compound 8] showed an IC50 of 2.04 µM. Moreover, the “% formate rescue” value in the series with HCT cells is listed as 80.65%.

On to `Cc1n[nH]c2c1C(c1cc(C#N)cc(C#CCCC(=O)O)c1)(C(C)C)C(C#N)=C(N)O2` (stereo not shown) [Compound 68], for which the IC50 in [4] amounted to 100 µM. Also, in the series on HCT cells, the “% formate rescue” value is recorded as 106.02%.

`Cc1n[nH]c2c1C(c1cc(C#CCCC(=O)O)cc(C(F)(F)F)c1)(C(C)C)C(C#N)=C(N)O2` (stereo not shown) [Compound 4]: the IC50 in series [4] came out at 15.1 µM; on human SHMT2 (read-out: SCHMT2 IC50, Table 2), 0.00017 µM. In the series with HCT cells, the “% formate rescue” value was found to be 93.35%.

For the compound `Cc1n[nH]c2c1C(c1cc(C#CCCC(=O)NC(C)(C)C(=O)O)cc(C(F)(F)F)c1)(C(C)C)C(C#N)=C(N)O2` (stereo not shown) [Compound 72], the logP in “LogP value” was found to be 3.38. 200 µM corresponded to half-maximal inhibition in series [4] (IC50). Besides, the “% formate rescue” value in the series with HCT cells worked out at 98.35%.

Compound `COC(=O)CCC#Cc1cc(C(F)(F)F)cc(C2(C(C)C)C(C#N)=C(N)Oc3[nH]nc(C)c32)c1` (stereo not shown) [Compound 73] came in with a lipophilicity (logP) in “LogP value” of 4.17. In addition, inhibition in series [4] was half-maximal at 11.1 µM (IC50). Besides, in the series on HCT cells, the “% formate rescue” value was found to be 97.33%.

Turning to `Cc1n[nH]c2c1C(c1cc(Br)cc(C(F)(F)F)c1)(C(F)(F)F)C(C#N)=C(N)O2` (stereo not shown), the microsomal CLint at 2 μM in series [5] (setting [6]) was 87.8 µL/min/mg; in [5] (setting [7]), 71.5 µL/min/mg.

Turning to `Cc1n[nH]c2c1C(c1cc(C#CCCCO)cc(C(F)(F)F)c1)(C(C)C)C(C#N)=C(N)O2` (stereo not shown) [Compound 61, 6-amino-4-(3-(5-hydroxypent-1-yn-1-yl)-5-(trifluoromethyl)phenyl)-4-isopropyl-3-methyl-1,4-dihydropyrano[2,3-c]pyrazole-5-carbonitrile], in series [4] (native HCT116, FIG. 3A), the “growth (proliferation) of HCT116 cells” value was “inhibited growth”. For the same compound, the “growth of SHMT2 knock-out HCT116 cells” value with HCT-116 ΔSHMT2 cells was “inhibited growth”.

With `Cc1n[nH]c2c1[C@@](c1cc(C(F)(F)F)cc(C(F)(F)F)c1)(C(C)C)C(C#N)=C(N)O2` [HK-16 (PK-2)], the “growth as assessed by cell count” value in the series with Jurkat cells (5 μM) is “inhibited”; in the series with Su-DHL-2 cells (Su-DHL-2, 5 μM), “inhibited”. In addition, the “rescue of growth inhibition by formate” value is reported as “significantly rescued” in the series on Jurkat cells (5 μM + 1 mM sodium formate) and “not rescued” with Su-DHL-2 cells (Su-DHL-2, 5 μM + 1 mM formate).

As to `Cc1n[nH]c2c1C(C)(c1cccc([N+](=O)[O-])c1)C(C#N)=C(N)O2` (stereo not shown) [GD-07], at human SHMT2 (read-out: SHMT2 IC50, Table 3), the IC50 was > 5 µM.

In the case of `Cc1n[nH]c2c1C(c1cc(C#CCCCO)cc(CO)c1)(C(C)C)C(C#N)=C(N)O2` (stereo not shown) [Compound 74], the microsomal CLint at 2 μM in series [5] (setting [6]) and in series [5] (setting [7]) was 68 µL/min/mg in each case.

`Cc1n[nH]c2c1C(c1cc(C#CCCC(=O)N[C@@H](CCC(=O)O)C(=O)O)cc(C(F)(F)F)c1)(C(C)C)C(C#N)=C(N)O2` (stereo partly shown) [Compound 69] registered an IC50 in [4] of 100 µM. Also, the “% formate rescue” value with HCT cells is recorded as 96.41%.

Source of the values: patent US10077273B2, “SHMT inhibitors” (The Trustees of Princeton University, priority 2016, dated 2018).
